Assay results from patent US20260337190A1, “CRYSTAL FORM OF PYRIDINOPYRIMIDINONE COMPOUND, ACID SALT THEREOF, CRYSTAL FORM OF ACID SALT THEREOF, AND USE” (Wuhan Humanwell Innovative Drug Research and Development …, priority 2022, published 2026).

Key:
[1] = test system: ERK phosphorylation level in DLD-1 cells; experiment: Inhibition of ERK phosphorylation level in DLD-1 cells (intracellular western blot); format: cell-based; conditions: summary statement
Protocol: Intracellular western blot quantitative analysis was used to detect the inhibitory level of compounds on ERK phosphorylation in DLD-1 cells.
DLD-1 cells (ATCC, CCL-221) were seeded in a T75 culture flask at 2.5×10^6 cells/flask, and cultured in a RPMI 1640 medium containing 10% FBS for 2 days. On day 3, the cells were seeded on a 384-well plate, and cultured overnight at 37 °C, 5% CO2. After overnight culture, the plate was added with serially diluted compounds (the final content of DMSO was 0.5%), the negative group was added with DMSO, and incubated in a 37 °C, 5% CO2 incubator.
The cells were fixed, washed once with PBS, treated to disrupt membranes, and blocked at room temperature for 1 h. The blocking solution was removed. The plate was added with primary antibody (CST, Cat. No. #4370S), and incubated overnight at 4 °C The plate was washed 3 times with PBST (PBS solution added with 0.05% Tween-20), and soaked for 2 min each time. The plate was added with secondary antibody (LI-COR, Cat. No. 926-32211), and incubated at room temperature in the dark. The plate was washed 3 times with PBST, and soaked for 2 min each time.
The plate was centrifuged at 1000 rpm for 1 min, scanned on a two-color infrared laser imaging system (Odyssey® CLX) to read the signal.
Relative signal=800-channel signal values/700-channel signal values. […]
IC50 values were calculated using Graphpad 5 software.

Mia Paca-2 tumor = experiment: In vivo efficacy on Mia Paca-2 pancreatic cancer (alone or with trametinib); set-up: species or system mice
Protocol: After one week of adaptive feeding of mice, Mia Paca-2 cells in a logarithmic phase were resuspended in serum-free DMEM, and then mixed with Matrigel in a ratio of 1:1. 1×10^7 Mia Paca-2 cells were inoculated subcutaneously at the right flank at 100 μL per mouse, and tumor growth was observed regularly. When the tumor grew to an average volume of 150 to 200 mm^3, the mice were randomly divided into a model group and an administration group (single drug, in combination with trametinib) based on the tumor size and body weight. The tumor size and body weight were measured and recorded before and during the administration. After the treatment, the tumor size in the model group was compared with that in the administration group to determine the efficacy.

NCI-H1975 tumor = experiment: In vivo efficacy on NCI-H1975 non-small cell lung cancer (in combination with osimertinib); set-up: species or system mice
Protocol: NCI-H1975 tumor cells were cultured in an incubator at 37 °C and 5% CO2 using medium containing inactivated RPMI 1640+10% FBS. After reaching a confluency rate of 80 to 90%, the cells were passaged by subculturing. After one week of adaptive feeding in mice, NCI-H1975 cells in logarithmic phase were inoculated subcutaneously into the right flank of mice at a concentration of 5×10^6/100 μL. Tumor growth was regularly monitored until the tumors reached an average volume of 100 to 150 mm^3. […] Tumor size and animal weight were measured and recorded before and during the administration process. The differences in tumor size between the model group and administration group were compared to determine the efficacy.

## Cc1nc(N[C@H](C)c2cccc(S(F)(F)(F)(F)F)c2)c2cn(C3(CF)CC3)c(=O)cc2n1 [compound of formula I, (R)-6-(1-(fluoromethyl)cyclopropyl)-2-methyl-4-((1-(3-(pentafluorosulfanyl)phenyl)ethyl)amino)pyrido[4,3-d]pyrimidin-7(6H)-one]
[1]
  inhibitory effect on the ERK phosphorylation level in DLD-1 cells: significant inhibitory effect
Mia Paca-2 tumor; alone or in combination with trametinib
  inhibitory effect on Mia Paca-2 tumor growth: significant inhibitory effect
Mia Paca-2 tumor; in combination with trametinib
  combined use with trametinib vs single use, Mia Paca-2 tumor growth: more effective than the single use
NCI-H1975 tumor; compound I-1 7.5 mg/kg BID or 25 mg/kg BID + osimertinib 1 mg/kg QD
  average tumor volume at the end of the treatment vs single-drug group of osimertinib: significantly reduced, and the difference is statistically significant
NCI-H1975 tumor; compound I-1 25 mg/kg BID + osimertinib 1 mg/kg QD
  synergistic effect of combined administration: synergistic effect
NCI-H1975 tumor; in combination with osimertinib
  anti-tumor efficacy of combination with osimertinib vs single-drug administration: significantly better than that of single-drug administration
